Measured values reported in US20050107447A1, “Novel lysophosphatidic acid receptor agonists and antagonists” (priority 2003, published 2005).
Entries after “also recorded” stand apart in the source; their conditions may differ.

Assays:
[1] = target: T1, LPA3 (Homo sapiens, UniProt Q9UBY5); assay: GTP[γ35S] binding, LPA3 transfected HEK293T cell membranes; assay type: biochemical; parameters: expressed in transfected cells; host or cells: HEK293T (transient, calcium phosphate)
T1 sequence (Q9UBY5 1-353): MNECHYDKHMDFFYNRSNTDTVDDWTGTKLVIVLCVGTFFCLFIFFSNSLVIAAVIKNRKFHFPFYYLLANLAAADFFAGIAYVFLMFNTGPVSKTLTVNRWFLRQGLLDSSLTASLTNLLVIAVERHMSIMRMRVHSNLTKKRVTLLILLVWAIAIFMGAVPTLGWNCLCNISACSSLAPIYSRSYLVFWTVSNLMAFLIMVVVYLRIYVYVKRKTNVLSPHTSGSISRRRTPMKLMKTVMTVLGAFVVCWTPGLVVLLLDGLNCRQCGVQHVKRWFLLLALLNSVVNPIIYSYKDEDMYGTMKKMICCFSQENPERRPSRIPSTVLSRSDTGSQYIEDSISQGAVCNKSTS
Experimental: (§1) The appropriate receptor plasmid DNA (encoding mouse LPA1, human LPA2 or human LPA3) was mixed with equal amounts of expression plasmids (pcDNA3) encoding a mutated (C351F) rat Gi2a, cow β1, and γ2 proteins and these DNAs were used to transfect monolayers of HEK293T cells (where ‘T’ indicates expression of the SV-40 virus large T antigen) using the calcium phosphate precipitate method. After about 60 hours, cells were harvested, membranes were prepared, aliquoted and stored at −70° C. until use.
(§2) The GTP[35 γS] assay was performed as described by us previously. Membranes containing 5 ug of protein were incubated in 0.1 ml GTP-binding buffer (in mM: HEPES 50, NaCl 100, MgCl2 10, pH7.5) containing […], […], 0.1 nM GTP[35 γS] (1200 Ci/mmol), and indicated lipid(s) for 30 minutes at 30° C. Samples were analyzed for membrane-bound radionuclide using a Brandel Cell Harvester (Gaithersburg, Md.).
(§3) The X-intercept of the linear transformation is equal to the inverse log of the κ1.
(§4) Membranes prepared from these cells are used to measure GTPγ[^35S] binding as a function of test compound concentration. The resulting dose-response curves provide relative potency (EC50) and efficacy, (Emax) for the test compounds.

[2] = target: T2, LPP2 (PAP2c) phosphatase (Homo sapiens, UniProt O43688); assay: LPP inhibition, competition with 50 nM [32P]LPA; assay type: biochemical; settings: 0.1, 1.0 and 10.0 mM vs 50 nM [32P]LPA
T2 sequence (O43688 1-288): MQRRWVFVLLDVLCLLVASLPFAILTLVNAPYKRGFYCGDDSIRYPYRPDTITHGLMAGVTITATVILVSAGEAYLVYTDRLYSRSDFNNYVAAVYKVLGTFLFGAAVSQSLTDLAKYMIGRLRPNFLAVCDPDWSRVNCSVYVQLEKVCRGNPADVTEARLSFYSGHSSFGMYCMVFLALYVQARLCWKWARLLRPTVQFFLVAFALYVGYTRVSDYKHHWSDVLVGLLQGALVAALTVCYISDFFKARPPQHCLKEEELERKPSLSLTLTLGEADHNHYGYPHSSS
Experimental: (§5) NOHPP was also tested for activity at the three cloned LPPs. Although the phosphonate head group eliminates the possibility of NOHPP acting as a substrate, it is possible that the compound could be a competitive inhibitor.

[3] = target: T3, LPP3 (PAP2b) phosphatase (Homo sapiens, UniProt O14495); assay: LPP inhibition, competition with 50 nM [32P]LPA; assay type: biochemical; settings: for Rank order potency of LPP inhibition: LPP3 vs LPP1 vs LPP2
T3 sequence (O14495 1-311): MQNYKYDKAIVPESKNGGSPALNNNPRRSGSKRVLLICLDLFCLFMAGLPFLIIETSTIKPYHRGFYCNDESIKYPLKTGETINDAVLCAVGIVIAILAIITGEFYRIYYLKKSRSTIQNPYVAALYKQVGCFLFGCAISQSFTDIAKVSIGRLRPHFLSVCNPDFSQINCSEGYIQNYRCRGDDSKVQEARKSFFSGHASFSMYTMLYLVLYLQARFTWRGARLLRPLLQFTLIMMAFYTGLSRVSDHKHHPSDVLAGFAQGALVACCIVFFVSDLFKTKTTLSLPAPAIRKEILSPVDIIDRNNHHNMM
Experimental: as §5

[4] = target: T4, LPP1 (PAP2a) phosphatase (Homo sapiens, UniProt O14494); assay: LPP inhibition, competition with 50 nM [32P]LPA; assay type: biochemical; settings: 0.1, 1.0 and 10.0 mM vs 50 nM [32P]LPA
T4 sequence (O14494 1-284): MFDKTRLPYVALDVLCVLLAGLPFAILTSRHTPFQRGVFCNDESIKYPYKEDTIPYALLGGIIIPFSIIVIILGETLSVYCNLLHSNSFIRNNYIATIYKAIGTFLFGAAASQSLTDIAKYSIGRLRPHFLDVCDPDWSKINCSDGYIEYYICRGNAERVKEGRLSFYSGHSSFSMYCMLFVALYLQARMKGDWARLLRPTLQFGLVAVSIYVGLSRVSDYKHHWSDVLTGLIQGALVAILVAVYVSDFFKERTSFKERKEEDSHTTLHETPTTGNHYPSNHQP
Experimental: as §5

[5] = target: T5, LPA2 (Homo sapiens, UniProt Q9HBW0); assay: GTP[γ35S] binding, LPA2 transfected HEK293T cell membranes; assay type: biochemical; parameters: expressed in transfected cells; host or cells: HEK293T (transient, calcium phosphate)
T5 sequence (Q9HBW0 whole entry): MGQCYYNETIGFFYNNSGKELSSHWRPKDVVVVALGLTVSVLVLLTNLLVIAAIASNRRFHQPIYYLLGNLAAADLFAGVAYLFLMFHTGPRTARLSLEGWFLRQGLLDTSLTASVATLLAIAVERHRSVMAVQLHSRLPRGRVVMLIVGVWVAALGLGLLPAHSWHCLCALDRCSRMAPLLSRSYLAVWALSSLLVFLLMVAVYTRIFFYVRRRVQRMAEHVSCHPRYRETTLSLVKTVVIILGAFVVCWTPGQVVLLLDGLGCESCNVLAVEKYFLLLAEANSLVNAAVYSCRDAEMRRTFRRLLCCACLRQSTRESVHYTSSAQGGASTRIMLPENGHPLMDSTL
Experimental: as §1, §2, §3, §4

[6] = target: T6, LPA1 (Mus musculus, UniProt P61793); assay: GTP[γ35S] binding, LPA1 transfected HEK293T (or RH7777) cell membranes; assay type: biochemical; parameters: expressed in transfected cells; host or cells: HEK293T (transient, with G protein plasmids); some results from RH7777 rat hepatoma membranes transfected with LPA1 DNA only
T6 sequence (P61793 whole entry): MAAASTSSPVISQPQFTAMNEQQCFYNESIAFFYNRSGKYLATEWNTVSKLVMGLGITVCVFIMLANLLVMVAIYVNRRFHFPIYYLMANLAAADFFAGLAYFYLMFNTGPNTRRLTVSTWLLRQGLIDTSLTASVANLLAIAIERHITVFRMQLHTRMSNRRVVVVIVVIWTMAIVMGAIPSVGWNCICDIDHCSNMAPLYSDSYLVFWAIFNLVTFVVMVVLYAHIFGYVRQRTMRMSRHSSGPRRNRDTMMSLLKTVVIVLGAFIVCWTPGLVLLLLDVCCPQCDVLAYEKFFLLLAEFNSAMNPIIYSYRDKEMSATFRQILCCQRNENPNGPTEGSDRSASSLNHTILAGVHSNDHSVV
Experimental: as §1, §2, §3, §4

[7] = target: T6, LPA1; assay: cAMP accumulation in RH7777 cells stably expressing LPA1; assay type: cell-based; parameters: expressed in transfected cells; settings: concentration of 1 μM
Experimental: Assays for cAMP accumulation were conducted on populations of 5×10^5 cells stimulated with […] in the presence of the phosphodiesterase inhibitor isomethylbutylxanthine (IBMX) for 15 minutes at 30° C. cAMP was measured by automated radioimmunoassay.
Rat hepatoma RH7777 cell monolayers were transfected with the mLPA1 plasmid DNA using the calcium phosphate precipitate method and clonal populations expressing the neomycin phosphotransferase gene were selected by addition of geneticin (G418) to the culture media. The RH7777 cells were grown in monolayers at 37° C. in a 5% CO02/95% air atmosphere in growth media consisting of: 90% MEM, 10% fetal bovine serum, 2 mM glutamine and 1 mM sodium pyruvate.
(§6) wls-b8L and the other phosphonates were also tested also for activity in three whole cell assays. […] Finally, the activity of wls-b8L in activating a chloride conductance in Xenopus laevis ooctyes was measured.

[8] = target: T1, LPA3; assay: Chloride conductance in Xenopus oocytes injected with human LPA3 mRNA; assay type: cell-based; parameters: expressed in transfected cells; host or cells: Xenopus laevis oocytes injected with mRNA; settings: 10 μM
Experimental: as §6

[9] = target: T5, LPA2; assay: Chloride conductance in Xenopus oocytes injected with human LPA2 mRNA; assay type: cell-based; parameters: expressed in transfected cells; host or cells: Xenopus laevis oocytes injected with mRNA; settings: 10 μM
Experimental: as §6

[10] = test system: MDA MB-231 cells; assay: Calcium mobilization through endogenous LPA receptors in MDA MB-231 cells; assay type: cell-based; settings: 1 μM
Experimental: as §6

[11] = test system: human platelets; assay: Aggregation of human platelets; assay type: cell-based; settings: concentrations up to 10 micromolar
[12] = test system: endogenous LPA receptor of Xenopus laevis oocytes; assay: Chloride conductance in Xenopus laevis oocytes, endogenous receptor; assay type: cell-based; settings: uninjected oocytes
Experimental: as §6

| Structure (SMILES) | Agonist activity/efficacy at LPA3 ([1]; compared to LPA) | Potency at LPA3 relative to LPA ([1]; vs 1-oleoyl LPA) | Inhibition of LPP2 [2] | Inhibition of LPP3 ([3]; 0.1, 1.0 and 10.0 mM vs 50 nM [32P]LPA) | Rank order potency of LPP inhibition [3] | Rank order potency of LPP inhibition ([3]; listed as VPC12031) | Inhibition of LPP1 [4] | Agonist activity/efficacy at LPA2 ([5]; compared to LPA) | Potency at LPA2 relative to LPA ([5]; vs 1-oleoyl LPA) | Agonist activity/efficacy at LPA1 ([6]; compared to LPA) | Potency at LPA1 relative to LPA ([6]; vs 1-oleoyl LPA) | Inhibition of cAMP accumulation (agonist efficacy) [7] | Activation of chloride conductance [8] | Activation of chloride conductance [9] | Calcium mobilization [10] | Aggregation of human platelets [11] | Activation of chloride conductance [12] | Receptor-type selectivity of agonist activity (LPA1 vs LPA2, LPA3) ([6]; GTPγ[35S] binding) |
| --- | --- | --- | --- | --- | --- | --- | --- | --- | --- | --- | --- | --- | --- | --- | --- | --- | --- | --- |
| CCCCCCCC/C=C\CCCCCCCC(=O)NCCC(O)P(=O)(O)O (racemic) [NOHPP, (9Z)-N-(rac-3-hydroxy-3-phosphonopropyl)Octadec-9-enamide] | far less efficacious; also recorded: little activity | distinctly less potent; also recorded: greater than two log orders less potent | inactive | inhibited | LPP3>LPP1>>LPP2 | markedly better at the PAP2b (LPP3) than PAP2a (LPP1) | to a lesser extent | as efficacious as; also recorded: fully efficacious | somewhat less potent; also recorded: about one log order less potent | as efficacious as; also recorded: fully efficacious | somewhat less potent; also recorded: about one log order less potent |  |  |  |  |  |  |  |
| CCCCCCCC/C=C\CCCCCCCC(=O)NCCCP(=O)(O)O [wls-b8L, (9Z)-N-(3-phosphonopropyl)Octadec-9-enamide] |  |  |  |  |  |  |  |  |  |  |  | fully efficacious | very modest response | very modest response | inactive | does not elicit aggregation | does not evoke this response | more potent and efficacious at LPA1 than at either LPA2 or LPA3; also recorded: distinctly more selective |
